Read-outs that look alike come from different tables or passages of the source. Starred links: 1 amine or outer side, 2 acyl side, 3 side chain; linkers in the order of their positions; H or OH if unused. Positions of bridges follow the written chain, without caps; N, C: chain ends. Non-standard residues stand in square brackets, D forms with d. Residues, ends and D or L forms follow the SMILES beside them. Trimesoyl = O=C(c1cc(C(=O)[*:2])cc(C(=O)[*:3])c1)[*:1]; Phe(4-Cl) = N[C@@H](Cc1ccc(Cl)cc1)C(=O)O; d2Nal = N[C@H](Cc1ccc2ccccc2c1)C(=O)O; Phg = N[C@H](C(=O)O)c1ccccc1; d(β3hA) = C[C@@H](N)CC(=O)O; Dap = NC[C@H](N)C(=O)O

In series [1] the test system is BECN1 binding to Etf-1. Description: streptavidin magnetic beads pull-down of BECN1 with biotin-Etf-1, Western blot. The class given is biochemical. The settings on record: 10 µM peptide. How it is done:
Fig. 8.
Streptavidin magnetic beads (15 µL, Pierce, Rockford, IL, USA) were washed with 1 mL of Bind/Wash buffer (25 mM Tris, pH 7.4; 250 mM NaCl, 0.1% Tween 20), and incubated with 0.15 µg ([…] final concentration) of biotinylated full-length Etf-1 protein in bind/wash buffer at 4°C overnight with end-to-end rotation. Beads were washed three times with Bind/Wash buffer, then incubated with Etf-1-binding macrocyclic peptides (10 µM) or DMSO control in Bind/Wash buffer at room temperature for 2 h. […] Beads were washed three times, and proteins were eluted from the beads with 50 µL of 2× SDS-sample buffer. […] Reacting bands were visualized with enhanced chemiluminescence by incubating the membrane with LumiGLO chemiluminescent reagent (Thermo Fisher Scientific). Images were captured by Amersham Imager 680 (GE Healthcare) and densitometry analysis was performed using ImagQuaNT (GE Healthcare). In each specimen, band intensities were normalized against those of actin as the loading control, and the ratios of the treatment group to the control group were calculated with the value in the control groups arbitrarily set as 1.0.
Background: In western blotting, separated proteins are transferred to a membrane and probed.

Series [2] is described as follows: serum stability assay (UPLC). The class given is in vitro ADME. The settings on record: 25% (v/v) in DPBS; 25% human serum, 37°C, after 22 h; read-out: degradation. How it is done:
In comparison, the linear peptide Tat (cell-permeable peptide of HIV) was completely degraded within the first 120 min of incubation (Fig. 4B).
Human serum was diluted to 25% (v/v) in sterile DPBS and equilibrated at 37°C for 15 min. Peptides were added to the diluted serum to a final concentration of 20 μM and incubated at 37°C with gentle mixing. At designated time points, 30 μL aliquots were withdrawn and mixed with 30 μL of 15% trichloroacetic acid in MeOH (w/v) and 30 μL of MeCN and stored at 4°C overnight to completely precipitate the serum proteins. Next, each aliquot was centrifuged (15,000g, 5 min, 4°C) and 14 μL of the supernatant was injected in an UPLC equipped with an analytical Waters Acquity UPLC BEH C18 column (1.7 μm, 2.1 mm I.D., 100 mm length) and an inline UV-Vis detector and a single quadrupole mass detector. The column was eluted with a linear gradient of 20–50% MeCN in ddH2O containing 0.1% TFA. A UV/Vis detector at 214 nm and the mass spec quantifying the ion counts corresponding to the [M + 3H]^3+ ion of the analytes were used to analyze the samples. The area under the peak of interest was obtained by integration, normalized to that of the peptide at t = 0, and plotted as a function of the incubation time to determine the serum half-life of the peptide.

For series [3], the system named is E. chaffeensis. Description: E. chaffeensis infection of THP-1 cells, qPCR of 16S rRNA gene normalized to human actin. The class given is cell-based, Ehrlichia chaffeensis. The settings on record: for inhibition of E. chaffeensis infection: 10 μM, 2 days, vs DMSO control. A general note: In qPCR the cycle at which signal appears reflects the starting amount.
Series [4] in a line: LDH release assay (plasma membrane damage). The note with it: Fig. S2. The class given is cell-based. How it is done: LDH release assay (Promega) was performed to assess the level of plasma membrane damage in a cell population by these compounds. […] Control wells contained 10 μL of lysis buffer, cell-free complete growth media, or positive LDH control. Following incubation at 37°C and 5% CO2 for 45 to 75 min, the culture was centrifuged and 50 μL of the growth medium was withdrawn from each well, transferred to a clear 96-well plate, mixed with 50 μL of LDH substrate mixture, and incubated at RT for 30 min with gentle mixing. Finally, 50 μL of 1 N HCl was added to each well, and the absorbances at 490 and 680 nm were immediately measured on a Tecan Infinite M1000 plate reader. Relative membrane leakage was calculated and plotted using GraphPad Prism v8.0.

Series [5] addresses Etf-1 (Ehrlichia chaffeensis, UniProt Q2GG12). The series can be described thus: biochemical. The note with it: for competition for Etf-1 binding: unlabeled competitor peptides vs FAM-B7-133-8. The class given is binding. How it is done: Fig. 2. Determination of binding affinity of Etf-1-binding peptides by FP assay. […] FAM-labeled peptide (50 nM) was incubated with serially diluted Etf-1 (starting from 25–30 μM in PBS, pH 7.4, supplemented with 5 mM DTT and 0.01% Triton X-100) for 1 h at RT. FP values were measured on a Tecan Infinite M1000 Pro plate reader. Titration curves (n ≥ 3) were fitted using GraphPad Prism and analyzed with TraceDrawer to calculate dissociation constants (KD). […] Data were analyzed using GraphPad Prism and fitted to a four-parameter variable slope equation to determine IC50 values.
Serial dilutions of competitor peptide (0-20 μM) were prepared from DMSO stock solutions into PBS containing 0.01% Triton-X100 and 2 mM TCEP and added to aliquots of the equilibrated Etf-1/probe solution. After incubation for 1 h in the dark and with gentle mixing, 20 μL of each sample was transferred into 384-well black-on-black microplates and FP was measured using a TECAN Infinite M1000 plate reader. Data were analyzed using GraphPad PRISM ver. 8.0 and fit to a four-parameter variable slope equation to determine IC50 values. IC50 values reported are the mean ± SD of n = 2–4 independent experiments.

Series [6] has as its system E. chaffeensis. The series can be described thus: morphological examination of E. chaffeensis infection of THP-1 cells by Diff-Quik staining. The note with it: for E. chaffeensis infection (numbers and sizes of morulae): THP-1 cells, Fig. S4 (with Figs. 5, S3).
Series [7] deals with THP-1 cells. Description: CellTiter-Glo luminescent cell viability assay. The note with it: 20 μM, 2-day treatment. The text has this: THP-1 (human promyelocytic leukemia) cells are widely used as E. chaffeensis infection studies of human monocytes in vitro, since initial characterization of infection ([31]).
Fig. 4. Cytotoxicity and proteolytic stability of Etf-1-binding peptides. (A) Effect of Etf-1-binding peptides on the viability of THP-1 cells as determined by CellTiter-Glo luminescent assay. Relative luminescence was plotted as function of the peptide concentration, with the cell viability of DMSO control group set as 100%. (B) Plot of the amount of intact peptide remaining as a function of the incubation time in 25% human serum. All values are normalized to that of peptide at time 0 (100%).
Cytotoxicity of Etf-1-binding peptides was examined by CellTiter-Glo luminescent cell viability assay (Promega, Madison, WI, USA). THP-1 cells were seeded in a transparent 96-well plate at a density of 5 × 10^3 cells/well (100 μL in each well) in RPMI-1640 containing 10% FBS and 1% antibiotics and cultured overnight. Etf-1-binding peptides were serially diluted in DPBS from a DMSO stock and added to the cells with the final concentration of 0–25 μM and a constant final concentration of 0.5% DMSO (v/v). After incubation at 37°C with 5% CO2 for 46 h, the plate was removed and pre-equilibrated to RT before the addition of 100 μL of the CellTiter-Glo 2.0 reagent to each well. The plate was incubated for 15 min on a rotary shaker in the dark, and the luminescence was detected (1-s integration time) on a Tecan Infinite M1000 Pro microplate reader. Relative luminescence was plotted as function of the peptide concentration, with the cell viability of DMSO control group set as 100%.
In general terms: ATP-based viability assays read luminescence as a measure of living cells.

Chain of Etf-1 (Q2GG12 entry or part of it): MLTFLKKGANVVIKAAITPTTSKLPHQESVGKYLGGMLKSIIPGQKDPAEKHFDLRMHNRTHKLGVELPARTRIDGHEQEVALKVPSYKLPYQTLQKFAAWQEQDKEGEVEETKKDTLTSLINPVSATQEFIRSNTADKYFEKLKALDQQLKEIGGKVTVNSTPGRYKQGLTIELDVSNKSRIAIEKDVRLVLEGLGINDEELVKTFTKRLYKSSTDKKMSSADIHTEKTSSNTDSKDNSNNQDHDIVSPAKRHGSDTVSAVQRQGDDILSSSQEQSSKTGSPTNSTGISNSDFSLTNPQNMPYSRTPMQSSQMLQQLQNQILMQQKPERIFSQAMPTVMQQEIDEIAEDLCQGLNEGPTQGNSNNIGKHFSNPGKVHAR

One may read the IC50 as the concentration that inhibits the measured activity by half. Higher therefore signals lower potency. Turning to `CC(C)C[C@H]1NC(=O)[C@H]2CCCN2C(=O)C[C@@H](C)NC(=O)[C@H](CCC(N)=O)NC(=O)[C@@H](Cc2ccc3ccccc3c2)NC(=O)[C@H](Cc2ccc(O)cc2)NC(=O)c2cc3cc(c2)C(=O)NC[C@H](NC1=O)C(=O)N[C@@H](Cc1ccc(Cl)cc1)C(=O)N[C@H](Cc1ccc2ccccc2c1)C(=O)N[C@H](CCCNC(=N)N)C(=O)N[C@@H](CCCNC(=N)N)C(=O)N[C@H](CCCNC(=N)N)C(=O)N[C@@H](CCCNC(=N)N)C(=O)N[C@H](C(N)=O)CNC3=O` [Peptide B7-133-8, TMA-Tyr-nal-Gln-homoAla-pro-leu-Dap-4-ClPhe-nal-arg-Arg-arg-Arg-Dap] (Y[d2Nal]Q[d(β3hA)][dP][dL][Dap][Phe(4-Cl)][d2Nal][dR]R[dR]R[Dap]-NH2; linker N-7-14 via Trimesoyl), in series [1] (compared to DMSO control), the “disruption of BECN1 binding to Etf-1” value is “disrupted BECN1 binding to Etf-1”. For the same compound, in series [1] (band intensities, DMSO control set as 1, Fig. 8B), the “BECN1/Etf-1 Ratio” value came out at 0.19. For the same compound, the metabolised at 22 h, 20 µM in series [2] is less than 20%. The “inhibition of E. chaffeensis infection” value in series [3] is “significantly inhibited”. The “dose dependence of inhibition of E. chaffeensis infection” value in series [3] (1, 5, and 10 μM) is given as “dose-dependent manner”. Further, the “inhibition of E. chaffeensis infection compared with peptide B7 (or B7-16)” value in series [3] (THP-1 cells) is on record as “significantly more potent inhibition”. Further, the “release of lactate dehydrogenase (LDH)” value in series [4] is “significant release of lactate dehydrogenase”. Also, in series [5], the IC50 turned out to be 110 ± 20 nM and the “competition for Etf-1 binding” value is on record as “Competition for Etf-1 binding was observed”. Besides, in series [6], the “cytotoxicity (cell lysis in treated groups)” value was “certain degrees of cytotoxicity”; the “E. chaffeensis infection (numbers and sizes of morulae)” value is reported as “significantly inhibited”.
On to `CC(C)C[C@H]1NC(=O)[C@H](c2ccccc2)NC(=O)[C@H](CO)NC(=O)[C@@H](Cc2ccc3ccccc3c2)NC(=O)[C@@H](CC(N)=O)NC(=O)[C@H](Cc2ccc(O)cc2)NC(=O)c2cc3cc(c2)C(=O)NC[C@H](NC(=O)[C@@H](CC(C)C)NC1=O)C(=O)N[C@@H](Cc1ccc(Cl)cc1)C(=O)N[C@H](Cc1ccc2ccccc2c1)C(=O)N[C@H](CCCNC(=N)N)C(=O)N[C@@H](CCCNC(=N)N)C(=O)N[C@H](CCCNC(=N)N)C(=O)N[C@@H](CCCNC(=N)N)C(=O)N[C@H](C(N)=O)CNC3=O` [Peptide B7-131-1, TMA-Tyr-asn-nal-Ser-Phg-leu-leu-Dap-4-ClPhe-nal-arg-Arg-arg-Arg-Dap] (Y[dN][d2Nal]S[Phg][dL][dL][Dap][Phe(4-Cl)][d2Nal][dR]R[dR]R[Dap]-NH2; linker N-8-15 via Trimesoyl), for which the metabolised at 22 h, 20 µM in series [2] is less than 20%. The cell viability result in series [7] is on record as “greater loss of cell viability”. Moreover, the “inhibition of E. chaffeensis infection” value in series [3] is on record as “significantly inhibited”. For the same compound, the “release of lactate dehydrogenase (LDH)” value in series [4] is on record as “significant release of lactate dehydrogenase”. Further, in series [5], the “competition for Etf-1 binding” value was “Competition for Etf-1 binding was observed”. Besides, in series [6], the “E. chaffeensis infection (numbers and sizes of morulae)” value was “significantly inhibited”. Also, the “cytotoxicity (cell lysis in treated groups)” value in series [6] (THP-1 host cells) was “certain degrees of cytotoxicity”.

For the origin of these results see PMC9982066, “Inhibition of Ehrlichia chaffeensis infection by cell-permeable macrocyclic peptides that bind type IV secretion effector Etf-1” (PNAS Nexus, 2023).
